Entries after “also recorded” stand apart in the source; their conditions may differ.
Legend:
[1] = system: rat chronic constriction injury (CCI) model; test: Mechanical allodynia (von Frey 50% paw withdrawal threshold), systemically administered fluocinolone, rat CCI model; format: in vivo
Description: (§1) The purpose of this study is to evaluate the efficacy of fluocinolone acetonide (Sigma Cat# F8880-25MG; Sigma Aldrich, St. Louis, Mo.), a potent corticosteroid, to reduce neuropathic pain in an animal model. This animal model involves pain-associated behaviors in male Wistar rats (300-326 g) following chronic constriction injury (CCI) induced by a procedure similar to that described by Bennett and Xie (1988). Under 2% isoflurane anesthesia, the rat's common sciatic nerve is exposed and freed from adherent tissue at mid-thigh by separating the muscle (biceps femoris) by blunt dissection. Four loose ligatures are placed 1 mm apart, using chromic gut (4-0 absorbable suture, Jorgensen Laboratories, Inc. Loveland, Colo.).
(§2) After CCI induction, each group (n=7) receive treatment via systemic injection. Vehicle control animals (Group 1) receive 1× phosphate buffered solution (PBS) intraperitoneally (IP) every three days, beginning the day of surgery (Day 0), etanercept (Group 2; 3 mg/kg) is administered IP every 3 days beginning Day 0. Animals in treatment Groups 3, 4 and 5 receive fluocinolone (0.5, 5, or 25 μg/kg) subcutaneously (SC) every day beginning Day 0.
(§3) Mechanical allodynia is measured using von Frey monofilament test (Stoelting, Wood Dale, Ill.). The plantar surface of the CCI paw of each animal is tested as described by Chaplan et al. (1994). Each animal is placed in a suspended clear plastic chamber with a wire mesh bottom. Prior to testing, each animal is acclimated for 15 minutes. The 50% paw withdrawal threshold response is determined by sequentially increasing or decreasing the stimulus strength according to the “up-down method” of Dixon (1980).
Testing begins with a filament with a buckling weight of 2.0 g and continued through a series of filaments applied in sequence, up to about 15 g. Each filament is applied with enough pressure to cause a buckle effect. The absence of a paw lifting/withdrawal response after 5 seconds prompts the use of the filament to the next higher weight. Paw withdrawal, indicates a positive response. The testing continues for four additional measurements and is used to calculate the response threshold. Four consecutive positive responses receive a score of 0.25 g, and five consecutive negative responses (i.e., no paw withdrawal) receives a score of 15 g. The mechanical paw withdrawal threshold of each animal is measured one day prior to surgery (per-surgical baseline) and on Days 8, 15, and 22.
The 50% paw withdrawal threshold is calculated (PWT; Luo and Calcutt, 2002, Chaplan et al. 1994) using the formula 10 (Xf+?d)/10,000, where Xf is the final von Frey filament used (log units), ? is a value that analyzes the response pattern (taken from the table published by Chaplan at al., 1994), and d is the mean difference between stimuli (log units). Data is analyzed using one-way ANOVA on each test.

[2] = Body weight gain during daily SC fluocinolone in CCI rats; format: in vivo, rat; conditions: for body weight difference to vehicle controls: 25 μg/kg SC daily
Description: as §1, §2

[3] = system: rat chronic constriction injury (CCI) model; test: Von Frey mechanical threshold, local pump delivery, rat CCI model; format: in vivo; conditions: 0.0032, 0.016, 0.08 ng/hour by pump, each day tested; not statistically significant
Description: as §3
Testing begins with a filament with a buckling weight of 2.0 g and continued through a series of filaments applied in sequence, up to about 15 g. Each filament is applied with enough pressure to cause a buckle effect. The absence of a paw lifting/withdrawal response after 5 seconds prompts the use of the filament to the next higher weight. […] The mechanical paw withdrawal threshold of each animal is measured one day prior to surgery (per-surgical baseline) and on Days 8, 15, and 22.
The 50% paw withdrawal threshold is calculated (PWT; Luo and Calcutt, 2002, Chaplan et al. 1994) using the formula 10 (Xf+?d)/10,000, where Xf is the final von Frey filament used (log units), ? is a value that analyzes the response pattern (taken from the table published by Chaplan at al., 1994), and d is the mean difference between stimuli (log units). Data is analyzed using one-way ANOVA on each test. […]

[4] = system: rat chronic constriction injury (CCI) model; test: Thermal paw withdrawal latency, local pump delivery, rat CCI model; format: in vivo; conditions: 0.0032, 0.016, and 0.08 ng/hour by osmotic mini-pump, perineural; p<0.05
Description: (§4) Thermal hyperalgesia is measured using a plantar analgesia instrument (Stoelting, Wood Dale, Ill.). Prior to testing, each animal is placed on the plantar test apparatus, a clear plastic chamber, and is allowed to rest/acclimate for 15 minutes. A radiant (heat) beam stimulus is applied to the CCI paw of each animal. After paw withdrawal, an automated control interrupts both the stimulus and the timer. The heat source device is set at intensity 50, and a maximal cut-off at 15 seconds is set to prevent tissue damage. Thermal hyperalgesia paw withdrawal latency response of the injured site (right hind paw) of each animal is measured 2 days prior to CCI surgery (pre-injury baseline) on Days 7, 14, and 21 after surgery. Data from each test is analyzed by one-way ANOVA.
Following the above experiments, the efficacy of locally administered, low dose of fluocinolone acetonide (Sigma Cat# F8880-25MG; Lot# 043K1167, Sigma Aldrich) and dexamethasone (Sigma Aldrich) is examined in the same CCI rat model. […]
Fluocinolone is administered at doses of 0.0032 ng/hour (0.02304 ng/kg/day), 0.016 ng/hour (0.1152 ng/kg/day), and 0.08 ng/hour (0.576 ng/kg/day). […] Thermal hyperalgesia, induced and measured as described above, is measured on Days −2, 7, 14, and 21. Mechanical allodynia, induced and measured as described above, is measured on Days −1, 8, 15, and 22.

[5] = system: rat chronic constriction injury (CCI) model; test: Thermal hyperalgesia (paw withdrawal latency), systemically administered fluocinolone, rat CCI model; format: in vivo
Description: as §1, §2, §4

SMILES: CC1(C)O[C@@H]2C[C@H]3[C@@H]4C[C@H](F)C5=CC(=O)C=C[C@]5(C)[C@@]4(F)[C@@H](O)C[C@]3(C)[C@]2(C(=O)CO)O1 [Fluocinolone, fluocinolone acetonide]
- Von Frey Filament "Allodynia" Latencies as Percent of Baseline, Mean ([1]; 0.5 μg/kg every day, Day 8): 45.2% of Baseline
- Von Frey Filament "Allodynia" Latencies as Percent of Baseline, Mean ([1]; 0.5 μg/kg every day, Day 15): 47.1% of Baseline
- Von Frey Filament "Allodynia" Latencies as Percent of Baseline, Mean ([1]; 0.5 μg/kg every day, Day 22): 66.2% of Baseline
- Von Frey Filament "Allodynia" Latencies as Percent of Baseline, Mean ([1]; 5 μg/kg every day, Day 8): 54.8% of Baseline
- Von Frey Filament "Allodynia" Latencies as Percent of Baseline, Mean ([1]; 5 μg/kg every day, Day 15): 57.5% of Baseline
- Von Frey Filament "Allodynia" Latencies as Percent of Baseline, Mean ([1]; 5 μg/kg every day, Day 22): 55.2% of Baseline
- Von Frey Filament "Allodynia" Latencies as Percent of Baseline, Mean ([1]; 25 μg/kg every day, Day 8): 76.3% of Baseline
- Von Frey Filament "Allodynia" Latencies as Percent of Baseline, Mean ([1]; 25 μg/kg every day, Day 15): 68.9% of Baseline
- Von Frey Filament "Allodynia" Latencies as Percent of Baseline, Mean ([1]; 25 μg/kg every day, Day 22): 70.3% of Baseline
- mechanical allodynia compared with etanercept ([1]; 0.5, 5, 25 μg/kg/day, not statistically significant): tend to improve mechanical allodynia over etanercept; also recorded: does not reveal any significant differences
- mechanical allodynia compared with vehicle controls ([1]; 0.5, 5, or 25 μg/kg/day SC, overall ANOVA): significantly improves (overall ANOVA) mechanical allodynia
- body weight gain compared with vehicle controls ([2]; 25 μg/kg SC daily for 21 days): significant decrease in body weight gain
- body weight difference to vehicle controls ([2]; Day 5): ~10 g
- body weight difference to vehicle controls ([2]; by Day 22): ~50 g
- body weight gain ([2]; 0.5 or 5 μg/kg SC daily for 21 days): does not have any effect on body weight gain
- mechanical threshold (von Frey) [3]: increases in the mechanical threshold
- thermal paw withdrawal latency compared to PBS [4]: increases in the thermal paw withdrawal latency tests compared to PBS
- Thermal Paw Withdrawal Latencies as Percent Baseline, Mean ([5]; 0.5 μg/kg every day, Day 7): 71.6 Percent Baseline
- Thermal Paw Withdrawal Latencies as Percent Baseline, Mean ([5]; 0.5 μg/kg every day, Day 14): 70.8 Percent Baseline
- Thermal Paw Withdrawal Latencies as Percent Baseline, Mean ([5]; 0.5 μg/kg every day, Day 21): 63.1 Percent Baseline
- thermal latency, t-test compared to etanercept ([5]; 0.5 μg/kg, Day 7, p<0.05): significant increase in latency on Day 7
- thermal latency, t-test compared to etanercept ([5]; 0.5 μg/kg, Days 14 and 21, n.s.): not on Days 14 and 21
- thermal latencies compared with etanercept ([5]; 0.5 μg/kg/day, only statistically significant on Day 7): tends to improve thermal latencies over etanercept
- Thermal Paw Withdrawal Latencies as Percent Baseline, Mean ([5]; 5 μg/kg every day, Day 7): 79.7 Percent Baseline
- Thermal Paw Withdrawal Latencies as Percent Baseline, Mean ([5]; 5 μg/kg every day, Day 14): 83.8 Percent Baseline
- Thermal Paw Withdrawal Latencies as Percent Baseline, Mean ([5]; 5 μg/kg every day, Day 21): 80.2 Percent Baseline
- thermal latency, t-test compared to etanercept ([5]; 5 μg/kg, Days 7, 14, 21, p<0.05): significant increase in latency on all testing days
- Thermal Paw Withdrawal Latencies as Percent Baseline, Mean ([5]; 25 μg/kg every day, Day 7): 67.4 Percent Baseline
- Thermal Paw Withdrawal Latencies as Percent Baseline, Mean ([5]; 25 μg/kg every day, Day 14): 80.9 Percent Baseline
- Thermal Paw Withdrawal Latencies as Percent Baseline, Mean ([5]; 25 μg/kg every day, Day 21): 80.0 Percent Baseline
- thermal latency relative to vehicle controls ([5]; 0.5, 5 and 25 μg/kg/day SC, Days 7, 14, 21, p<0.05): increase in thermal latency relative to vehicle controls; also recorded: significantly increases the paw withdrawal latency period; also recorded: significant increase in thermal latency
- thermal hyperalgesia compared with etanercept ([5]; 5 and 25 μg/kg/day, all days tested, etanercept 3 mg/kg IP every 3 days, ANOVA p<0.05): improves thermal hyperalgesia significantly greater than etanercept
- thermal latency, 5 μg/kg dose compared with 25 μg/kg dose ([5]; Day 7, Fisher LSD, p<0.05): significantly more effective than 25 μg/kg dose
- thermal latency, 5 and 25 μg/kg doses compared with 0.5 μg/kg dose ([5]; Days 14 and 21, Fisher LSD, p<0.05): significantly more effective than the 0.5 μg/kg dose

Source: patent US20080317805A1, “LOCALLY ADMINISTRATED LOW DOSES OF CORTICOSTEROIDS” (priority 2007, published 2008)
